Assay results taken from patent US7588892B2, “Reagent sets and gene signatures for renal tubule injury” (Entelos, Inc., priority 2004, dated 2009).

Test system: renal tubules
Assay: 28-day repeat dose study of known nephrotoxicants, kidney histopathology on day 5 and day 28
Assay type: in vivo, rat
Conditions: after 4 weeks of dosing, kidney histopathology
Protocol: 28-day repeat dose studies were conducted on known nephrotoxicants. Doses were chosen that would not cause histological or clinical evidence of renal tubular injury after 5 days of dosing, but would cause histological evidence of tubular injury after 28 days of dosing. Animals were assigned to groups such that mean body weights were within 10% of the mean vehicle control group. Test compounds were administered either orally (10 ml of corn oil/kg body weight) or by intra-peritoneal injection (5 ml of saline/kg body weight). Animals were dosed once daily starting on day 0, and necropsied 24 hrs after the last dose following an overnight fast on day 5 (n=5) and day 28 (n=10). An equivalent number of time- and vehicle-matched control rats were treated concurrently.
To derive a signature predictive of renal tubular injury, it is necessary to first define both nephrotoxic and non-nephrotoxic treatments from short-term studies devoid of tissue injury that can be used to model the early transcriptional effects that will be predictive of late-onset toxicity.
Doses were chosen that would not cause histological or clinical evidence of renal tubular injury after 5 days of dosing, but would cause histological evidence of tubular injury after 28 days of dosing.
Male Sprague-Dawley (Crl:CD®(SD)(IGS)BR) rats (Charles River Laboratories, Portage, Mich.), weight matched, 7 to 8 weeks of age, were housed individually in hanging, stainless steel, wire-bottom cages in a temperature (66-77° F.), light (12-hour dark/light cycle) and humidity (30-70%) controlled room. […] Housing and treatment of the animals were in accordance with regulations outlined in the USDA Animal Welfare Act (9 CFR Parts 1, 2 and 3).
All animals were monitored daily for clinical observations approximately 1 hr after dosing. […] Paired organs were weighed together. Body weights were recorded pre-test and daily thereafter for reference database (i.e., DrugMatrix™) studies, and on days 0, 3, 5, 7, 14 and 28 for the sub-chronic studies. Terminal body weights were measured at necropsy and used to calculate relative organ weights and percent body weight gain relative to day 0.
The right kidney was preserved in 10% buffered formalin for tissue fixation and subsequently embedded in paraffin, sectioned and stained with hematoxylin and eosin. Sections (5 μm thick) were examined under light microscope by Board Certified Pathologists for histopathological lesions. The left kidney was snap frozen in liquid nitrogen for subsequent RNA extraction.
With `N.N.O=C([O-])C1(C(=O)[O-])CCC1.[Pt+2]` [CARBOPLATIN] the incidence of karyomegaly was “high incidence”.
In the case of `N.N.[Cl][Pt][Cl]` [CISPLATIN], the incidence of karyomegaly is reported as “high incidence”.
In the case of `[Cl-].[Cl-].[Co+2]` [COBALT (II) CHLORIDE], the incidence of karyomegaly is reported as “high incidence”.
With `CC(=O)[O-].CC(=O)[O-].[Pb+2]` [LEAD (II) ACETATE] the incidence of karyomegaly was “high incidence”.

Same assay, conditions: day 5, kidney histopathology
In the case of `CC(=O)[O-].CC(=O)[O-].[Pb+2]` [LEAD (II) ACETATE], the “mild tubular dilation and proteinaceous casts, animals affected” value is reported as “one”.

Same assay, conditions: day 5, kidney histopathology, n=5
In the case of `N.N.O=C([O-])C1(C(=O)[O-])CCC1.[Pt+2]` [CARBOPLATIN], the incidence of karyomegaly is reported as 5 rats.
`N.N.[Cl][Pt][Cl]` [CISPLATIN] gave an incidence of karyomegaly of 3 rats.

Same assay, conditions: day 28, kidney histopathology
With `CCCCCCCCCc1ccc(O)cc1` [4-NONYLPHENOL] the “evidence of tubular injury” value was “clear evidence of tubular injury”.

Same assay, conditions: day 28, kidney histopathology, n=10
In the case of `CCCCCCCCCc1ccc(O)cc1` [4-NONYLPHENOL], the “incidence of interstitial inflammation” value is reported as 6 rats and the “proteinaceous casts, tubular cysts and mineralization, animals affected” value is reported as “one”.

Same assay, conditions: male Sprague-Dawley rats, daily dose, route and vehicle of Table 2; late-onset renal tubular injury empirically confirmed after 28 days of dosing; expression profile day 5
In the case of `NCC[C@H](O)C(=O)N[C@@H]1C[C@H](N)[C@@H](O[C@H]2O[C@H](CN)[C@@H](O)[C@H](O)[C@H]2O)[C@H](O)[C@H]1O[C@H]1O[C@H](CO)[C@@H](O)[C@H](N)[C@H]1O` [AMIKACIN], the “Class (nephrotoxic / non-nephrotoxic training label)” value is reported as “Nephrotoxic”.
For `[Cl][Cd][Cl]` [CADMIUM CHLORIDE], the “Class (nephrotoxic / non-nephrotoxic training label)” value was “Nephrotoxic”.
With `N.N.O=C([O-])C1(C(=O)[O-])CCC1.[Pt+2]` [CARBOPLATIN] the “Class (nephrotoxic / non-nephrotoxic training label)” value was “Nephrotoxic”.
For `[Cl-].[Cl-].[Co+2]` [COBALT (II) CHLORIDE], the “Class (nephrotoxic / non-nephrotoxic training label)” value was “Nephrotoxic”.
For `COc1cccc2c1C(=O)c1c(O)c3c(c(O)c1C2=O)C[C@@](O)(C(C)=O)C[C@@H]3O[C@H]1C[C@H](N)[C@H](O)[C@H](C)O1` [DAUNORUBICIN], the “Class (nephrotoxic / non-nephrotoxic training label)” value was “Nephrotoxic”.
For `COc1cccc2c1C(=O)c1c(O)c3c(c(O)c1C2=O)C[C@@](O)(C(=O)CO)C[C@@H]3O[C@H]1C[C@H](N)[C@H](O)[C@H](C)O1` [DOXORUBICIN], the “Class (nephrotoxic / non-nephrotoxic training label)” value was “Nephrotoxic”.
For `CC(=O)[C@]1(O)Cc2c(O)c3c(c(O)c2[C@@H](O[C@H]2C[C@H](N)[C@H](O)[C@H](C)O2)C1)C(=O)c1ccccc1C3=O` [IDARUBICIN], the “Class (nephrotoxic / non-nephrotoxic training label)” value was “Nephrotoxic”.
With `CC(=O)[O-].CC(=O)[O-].[Pb+2]` [LEAD (II) ACETATE] the “Class (nephrotoxic / non-nephrotoxic training label)” value was “Nephrotoxic”.
For `CCN[C@@H]1C[C@H](N)[C@@H](O[C@H]2OC(CN)=CC[C@H]2N)[C@H](O)[C@H]1O[C@H]1OC[C@](C)(O)[C@H](NC)[C@H]1O` [NETILMICIN], the “Class (nephrotoxic / non-nephrotoxic training label)” value was “Nephrotoxic”.

Same assay, conditions: rat, in vivo
For `CCCCCCCCCc1ccc(O)cc1` [4-NONYLPHENOL], the “Class (nephrotoxic / non-nephrotoxic training label)” value was “Nephrotoxic”.

Test system: renal tubules
Assay: not given
Conditions: rats, daily dose, route and vehicle of Table 2, day 5/7; absence of nephrotoxicity asserted from PDR and published literature; no histological injury on day 5/7; cited from earlier work
In the case of `COc1ccc2cc(CC(=O)O)ccc2c1`, the “Class (nephrotoxic / non-nephrotoxic training label)” value is given as “Non-nephrotoxic”.
In the case of `CC(C)CN(C[C@@H](O)[C@H](Cc1ccccc1)NC(=O)O[C@H]1CCOC1)S(=O)(=O)c1ccc(N)cc1`, the “Class (nephrotoxic / non-nephrotoxic training label)” value is given as “Non-nephrotoxic”.
In the case of `CCOc1nc2cccc(C(=O)O)c2n1Cc1ccc(-c2ccccc2-c2nnn[nH]2)cc1`, the “Class (nephrotoxic / non-nephrotoxic training label)” value is listed as “Non-nephrotoxic”.
In the case of `CCOC(=O)[C@H](CCc1ccccc1)N[C@@H](C)C(=O)N1[C@H](C(=O)O)C[C@@H]2CCC[C@@H]21`, the “Class (nephrotoxic / non-nephrotoxic training label)” value is listed as “Non-nephrotoxic”.
In the case of `C[C@H]1O[C@H](O[C@H]2[C@H](O)[C@@H](O)[C@@H](O[C@H]3[C@H](O)[C@@H](O)C(O)O[C@@H]3CO)O[C@@H]2CO)[C@H](O)[C@@H](O)[C@@H]1N[C@H]1C=C(CO)[C@@H](O)[C@H](O)[C@H]1O` (some centres unmarked) [ACARBOSE], the “Class (nephrotoxic / non-nephrotoxic training label)” value is given as “Non-nephrotoxic”.
In the case of `CC(=O)Oc1ccccc1C(=O)O` [ASPIRIN], the “Class (nephrotoxic / non-nephrotoxic training label)” value is listed as “Non-nephrotoxic”.
In the case of `Cn1cnc([N+](=O)[O-])c1Sc1ncnc2nc[nH]c12` [AZATHIOPRINE], the “Class (nephrotoxic / non-nephrotoxic training label)” value is given as “Non-nephrotoxic”.
For `CNCCc1ccccn1` [BETAHISTINE], the “Class (nephrotoxic / non-nephrotoxic training label)” value is given as “Non-nephrotoxic”.
For `CC(C)(c1ccc(O)cc1)c1ccc(O)cc1` [BISPHENOL A], the “Class (nephrotoxic / non-nephrotoxic training label)” value is given as “Non-nephrotoxic”.
In the case of `Oc1c(Cl)cc(Cl)cc1Sc1cc(Cl)cc(Cl)c1O` [BITHIONOL], the “Class (nephrotoxic / non-nephrotoxic training label)” value is listed as “Non-nephrotoxic”.
For `C[C@H](CS)C(=O)N1CCC[C@H]1C(=O)O` [CAPTOPRIL], the “Class (nephrotoxic / non-nephrotoxic training label)” value is given as “Non-nephrotoxic”.
In the case of `Cc1ccc(-c2cc(C(F)(F)F)nn2-c2ccc(S(N)(=O)=O)cc2)cc1` [CELECOXIB], the “Class (nephrotoxic / non-nephrotoxic training label)” value is listed as “Non-nephrotoxic”.
For `CCOC(=O)C(C)(C)Oc1ccc(Cl)cc1` [CLOFIBRATE], the “Class (nephrotoxic / non-nephrotoxic training label)” value is given as “Non-nephrotoxic”.
In the case of `CCO` [ETHANOL], the “Class (nephrotoxic / non-nephrotoxic training label)” value is given as “Non-nephrotoxic”.
In the case of `CC12CCC(CC1)C(C)(C)O2` [EUCALYPTOL], the “Class (nephrotoxic / non-nephrotoxic training label)” value is listed as “Non-nephrotoxic”.
In the case of `CC(C)OC(=O)C(C)(C)Oc1ccc(C(=O)c2ccc(Cl)cc2)cc1` [FENOFIBRATE], the “Class (nephrotoxic / non-nephrotoxic training label)” value is listed as “Non-nephrotoxic”.
For `CC(C)n1c(/C=C/C(O)CC(O)CC(=O)O)c(-c2ccc(F)cc2)c2ccccc21` (centres unmarked) [FLUVASTATIN], the “Class (nephrotoxic / non-nephrotoxic training label)” value is given as “Non-nephrotoxic”.
For `CNC[C@H](O)[C@@H](O)[C@H](O)[C@H](O)CO.CNC[C@H](O)[C@@H](O)[C@H](O)[C@H](O)CO.O=C([O-])CN(CCN(CC(=O)[O-])CC(=O)O)CCN(CC(=O)[O-])CC(=O)O.[Gd+3]` [GADOPENTETATE DIMEGLUMINE], the “Class (nephrotoxic / non-nephrotoxic training label)” value is given as “Non-nephrotoxic”.
For `Cc1ccc(C)c(OCCCC(C)(C)C(=O)O)c1` [GEMFIBROZIL], the “Class (nephrotoxic / non-nephrotoxic training label)” value is listed as “Non-nephrotoxic”.
In the case of `Cc1ccc(S(=O)(=O)NC(=O)NN2CC3CCCC3C2)cc1` (centres unmarked) [GLICLAZIDE], the “Class (nephrotoxic / non-nephrotoxic training label)” value is listed as “Non-nephrotoxic”.
In the case of `NCC(=O)O` [GLYCINE], the “Class (nephrotoxic / non-nephrotoxic training label)” value is given as “Non-nephrotoxic”.
For `Cc1oncc1C(=O)Nc1ccc(C(F)(F)F)cc1` [LEFLUNOMIDE], the “Class (nephrotoxic / non-nephrotoxic training label)” value is listed as “Non-nephrotoxic”.
In the case of `CCC[C@@H]1C[C@@H](C(=O)N[C@@H]([C@H]2O[C@H](SC)[C@H](O)[C@@H](O)[C@H]2O)[C@@H](C)O)N(C)C1` [LINCOMYCIN], the “Class (nephrotoxic / non-nephrotoxic training label)” value is listed as “Non-nephrotoxic”.
For `CC[C@H](C)C(=O)O[C@H]1C[C@@H](C)C=C2C=C[C@H](C)[C@H](CC[C@@H]3C[C@@H](O)CC(=O)O3)[C@H]21` [LOVASTATIN], the “Class (nephrotoxic / non-nephrotoxic training label)” value is given as “Non-nephrotoxic”.
In the case of `CN(C)C=O` [N,N-DIMETHYLFORMAMIDE], the “Class (nephrotoxic / non-nephrotoxic training label)” value is given as “Non-nephrotoxic”.
For `CCN(CC)N=O` [N-NITROSODIETHYLAMINE], the “Class (nephrotoxic / non-nephrotoxic training label)” value is listed as “Non-nephrotoxic”.
In the case of `CO[C@H]1C[C@@H]2CC[C@@H](C)[C@@](O)(O2)C(=O)C(=O)N2CCCC[C@H]2C(=O)O[C@H]([C@H](C)C[C@@H]2CC[C@@H](O)[C@H](OC)C2)CC(=O)[C@H](C)/C=C(\C)[C@@H](O)[C@@H](OC)C(=O)[C@H](C)C[C@H](C)/C=C/C=C/C=C/1C` [RAPAMYCIN], the “Class (nephrotoxic / non-nephrotoxic training label)” value is listed as “Non-nephrotoxic”.
For `CO[C@H]1/C=C/O[C@@]2(C)Oc3c(C)c(O)c4c(c3C2=O)C2=NC3(CCN(CC(C)C)CC3)NC2=C(NC(=O)/C(C)=C\C=C\[C@H](C)[C@H](O)[C@@H](C)[C@@H](O)[C@@H](C)[C@H](OC(C)=O)[C@@H]1C)C4=O` [RIFABUTIN], the “Class (nephrotoxic / non-nephrotoxic training label)” value is listed as “Non-nephrotoxic”.
For `O=C1C(CC[S+]([O-])c2ccccc2)C(=O)N(c2ccccc2)N1c1ccccc1` (centres unmarked) [SULFINPYRAZONE], the “Class (nephrotoxic / non-nephrotoxic training label)” value is given as “Non-nephrotoxic”.
For `NC(=O)N1C(=O)/C(=C(\O)c2cccs2)c2cc(Cl)ccc21` [TENIDAP], the “Class (nephrotoxic / non-nephrotoxic training label)” value is given as “Non-nephrotoxic”.
In the case of `CS(=O)(=O)c1ccc([C@@H](O)[C@@H](CO)NC(=O)C(Cl)Cl)cc1` [THIAMPHENICOL], the “Class (nephrotoxic / non-nephrotoxic training label)” value is listed as “Non-nephrotoxic”.
For `N.N.[Cl][Pt+2][Cl]` [TRANSPLATIN], the “Class (nephrotoxic / non-nephrotoxic training label)” value is given as “Non-nephrotoxic”.
In the case of `CC(C)[C@H](N)C(=O)OCCOCn1cnc2c(=O)[nH]c(N)nc21` [VALACYCLOVIR], the “Class (nephrotoxic / non-nephrotoxic training label)” value is given as “Non-nephrotoxic”.
For `CCCC(CCC)C(=O)O` [VALPROIC ACID], the “Class (nephrotoxic / non-nephrotoxic training label)” value is listed as “Non-nephrotoxic”.
For `CC(c1cc2ccccc2s1)N(O)C(N)=O` (centres unmarked) [ZILEUTON], the “Class (nephrotoxic / non-nephrotoxic training label)” value is given as “Non-nephrotoxic”.
In the case of `Cc1cc(CC(=O)O)n(C)c1C(=O)c1ccc(Cl)cc1` [ZOMEPIRAC], the “Class (nephrotoxic / non-nephrotoxic training label)” value is given as “Non-nephrotoxic”.
